Measurements from ChEMBL document CHEMBL1147876, “Synthesis of novel 3-amino-2-(4-chloro-2-mercaptobenzenesulfonyl)-guanidine derivatives as potential antitumor agents” (Eur J Med Chem, 2007).
Calls of active or inactive are those of the source.

What was measured:
Format in all cases: functional, cell-based
[1] = system: MCF7; test: Anticancer activity against human MCF7 cells at 100 uM
[2] = system: SF-268; test: Anticancer activity against human SF268 cells at 100 uM
[3] = system: NCI-H460; test: Anticancer activity against human NCI-H460 cells at 100 uM

Measured: Activity

C#CCN/C(=N/S(=O)(=O)c1cc(C)c(Cl)cc1SCC#N)NN
inactive: all assays above

C=CCN/C(=N/S(=O)(=O)c1cc(C(=O)Nc2ccc(Cl)cc2)c(Cl)cc1SC)NN
inactive: all assays above

C=CCN/C(=N/S(=O)(=O)c1cc(C)c(Cl)cc1SC)N/N=C/c1ccc([N+](=O)[O-])o1
inactive: all assays above

C=CCN/C(=N/S(=O)(=O)c1cc(C(=O)Nc2ccccc2)c(Cl)cc1SCC(N)=O)NN
inactive: all assays above

C#CCN/C(=N/S(=O)(=O)c1cc(C)c(Cl)cc1S)NN
inactive: all assays above

C#CCN/C(=N/S(=O)(=O)c1cc(C)c(Cl)cc1SCC(=O)c1ccccc1)NN
inactive: all assays above

C#CCN/C(=N/S(=O)(=O)c1cc(C(=O)Nc2ccccc2)c(Cl)cc1S)NN
inactive: all assays above

C#CCN/C(=N/S(=O)(=O)c1cc(C)c(Cl)cc1SCC(N)=O)NN
inactive: all assays above
